Assay results as given in ChEMBL document CHEMBL1201862, “PubChem BioAssay data set” (2004).
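Cultured in 96-well plates, cells were exposed to test compound for 48 hours across five concentrations. Abbreviation: GI50, concentration required for 50% inhibition of growth.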 Active and inactive are the calls of the source. No stated cut-off is given here; in the data, active = GI50 up to about 1.1 µM and inactive = higher. Where a SMILES comes first, the peptide text is derived from it. The star is where a group is joined. Boc = CC(C)(C)OC(=O)*; OSu = O=C1CCC(=O)N1O*

Key:
Assay in all cases: DTP human tumour cell line panel, 48 h
786-0 = system: 786-0
A549 = system: A549
HCC 2998 = system: HCC 2998
HCT-15 = system: HCT-15
HL-60 = system: HL-60
IGROV-1 = system: IGROV-1
KM12 = system: KM12
MCF7 = system: MCF7
MDA-MB-435 = system: MDA-MB-435
NCI-H226 = system: NCI-H226
NCI-H23 = system: NCI-H23
NCI/ADR-RES = system: NCI/ADR-RES
OVCAR-3 = system: OVCAR-3
OVCAR-5 = system: OVCAR-5
SF-295 = system: SF-295
SN12C = system: SN12C
SNB-75 = system: SNB-75
T47D = system: T47D
TK-10 = system: TK-10
UACC-257 = system: UACC-257

| SMILES | GI50 (786-0) | GI50 (A549) | GI50 (HCC 2998) | GI50 (HCT-15) [µM] | GI50 (HL-60) | GI50 (IGROV-1) | GI50 (KM12) | GI50 (MCF7) | GI50 (MDA-MB-435) | GI50 (NCI-H226) | GI50 (NCI-H23) | GI50 (NCI/ADR-RES) | GI50 (OVCAR-3) | GI50 (OVCAR-5) | GI50 (SF-295) | GI50 (SN12C) | GI50 (SNB-75) | GI50 (T47D) | GI50 (TK-10) | GI50 (UACC-257) |
| --- | --- | --- | --- | --- | --- | --- | --- | --- | --- | --- | --- | --- | --- | --- | --- | --- | --- | --- | --- | --- |
| COc1cc(/C=c2/c3ccccc3n3c2cc(-c2ccccc2)[n+]3C)cc(OC)c1OC | 4.06 µM (inactive) | 4.18 µM (inactive) | 6.22 µM (inactive) | 4.39 | 2.39 µM (inactive) | 6.19 µM (inactive) | 1.91 µM (inactive) | 4.54 µM (inactive) | 2.51 µM (inactive) | 7.94 µM (inactive) | 3.94 µM (inactive) | > 100 µM (inactive) | 2.43 µM (inactive) | 4.85 µM (inactive) | 5.64 µM (inactive) | 2.82 µM (inactive) | 4.01 µM (inactive) | 4.06 µM (inactive) | 5.33 µM (inactive) | 2.44 µM (inactive) |
| COc1ccc(C2=NNC(=O)c3ccccc3N2c2nc(-c3cccs3)nc3cc(OC)c(OC)cc23)cc1 | 2.32 µM (inactive) | 5.6 µM (inactive) | 2.96 µM (inactive) | 5.92 | – | 11.1 µM (inactive) | 4.09 µM (inactive) | 3.36 µM (inactive) | 3.75 µM (inactive) | 4.56 µM (inactive) | 7.13 µM (inactive) | 5.55 µM (inactive) | 2.61 µM (inactive) | 27.7 µM (inactive) | 3.95 µM (inactive) | 3.17 µM (inactive) | 3.81 µM (inactive) | 2.76 µM (inactive) | 5.24 µM (inactive) | 4.19 µM (inactive) |
| O=C(/C=C/c1ccc(Cl)c(Cl)c1)CCN1CCN(CCC(=O)/C=C/c2ccc(Cl)c(Cl)c2)CC1 | 6.9 µM (inactive) | 30.2 µM (inactive) | 14.1 µM (inactive) | 13.8 | 6.22 µM (inactive) | 17 µM (inactive) | 12.5 µM (inactive) | 4.04 µM (inactive) | 21.8 µM (inactive) | 19.7 µM (inactive) | > 10 µM (inactive) | 36.9 µM (inactive) | 23.6 µM (inactive) | 19.2 µM (inactive) | 19.7 µM (inactive) | 26.3 µM (inactive) | 31.9 µM (inactive) | 24.8 µM (inactive) | 18 µM (inactive) | 33 µM (inactive) |
| C=C(Cl)C(Cl)(CBr)CCC(Br)C(C)(C)Br (stereo not drawn) | 1.14 µM (inactive) | 4.9 µM (inactive) | 5.75 µM (inactive) | 3.03 | 2.19 µM (inactive) | 18.2 µM (inactive) | 1.38 µM (inactive) | 1.5 µM (inactive) | 9.44 µM (inactive) | 20.1 µM (inactive) | 14.2 µM (inactive) | 5.66 µM (inactive) | 2.93 µM (inactive) | 12.7 µM (inactive) | 2 µM (inactive) | 7.28 µM (inactive) | 2.12 µM (inactive) | 2.25 µM (inactive) | 1.49 µM (inactive) | 1.8 µM (inactive) |
| Cc1nn(C(=O)c2ccc(Cl)cc2)c2c1C(c1ccccc1[N+](=O)[O-])SC(=N)N2 (stereo not drawn) | > 10 µM (inactive) | > 10 µM (inactive) | > 10 µM (inactive) | > 10 | > 10 µM (inactive) | > 10 µM (inactive) | > 10 µM (inactive) | > 10 µM (inactive) | > 10 µM (inactive) | > 10 µM (inactive) | > 10 µM (inactive) | > 10 µM (inactive) | > 10 µM (inactive) | > 10 µM (inactive) | > 10 µM (inactive) | > 10 µM (inactive) | > 10 µM (inactive) | > 10 µM (inactive) | > 10 µM (inactive) | > 10 µM (inactive) |
| Cc1cccc(NC(=S)N/N=C(/c2ccccc2)c2ccccn2)c1 | 0.948 µM (active) | 0.22 µM (active) | 2.84 µM (inactive) | 0.0255 | < 0.0137 µM (active) | < 0.0182 µM (active) | 0.0796 µM (active) | < 0.0172 µM (active) | 0.574 µM (active) | 0.207 µM (active) | < 0.0282 µM (active) | 0.138 µM (active) | < 0.0182 µM (active) | 0.0266 µM (active) | 0.173 µM (active) | 0.359 µM (active) | 0.991 µM (active) | 0.0579 µM (active) | 0.117 µM (active) | < 0.0162 µM (active) |
| CN(C)Cc1cc(/N=N/c2ccc(Cl)cc2)cc(CN(C)C)c1O | 5.53 µM (inactive) | 8.93 µM (inactive) | 10.5 µM (inactive) | 6.52 | 1.44 µM (inactive) | 3.38 µM (inactive) | 6.55 µM (inactive) | 7.87 µM (inactive) | 12.2 µM (inactive) | 4.39 µM (inactive) | 21.2 µM (inactive) | 3.07 µM (inactive) | 1.84 µM (inactive) | – | 11.8 µM (inactive) | 11.4 µM (inactive) | 10.9 µM (inactive) | 10.5 µM (inactive) | 5.94 µM (inactive) | 16.2 µM (inactive) |
| CNc1ncccc1Nc1cc(=O)n2c3cccnc3n(C)c2c1 | > 100 µM (inactive) | > 100 µM (inactive) | > 100 µM (inactive) | > 100 | – | 34.1 µM (inactive) | > 100 µM (inactive) | > 100 µM (inactive) | > 100 µM (inactive) | > 100 µM (inactive) | 74.6 µM (inactive) | > 100 µM (inactive) | > 100 µM (inactive) | > 100 µM (inactive) | 93.5 µM (inactive) | – | 24.9 µM (inactive) | > 100 µM (inactive) | 53.2 µM (inactive) | > 100 µM (inactive) |
| C=CCOC(=O)C1C2OC3(C(C(=O)OC)=C2C(=O)OC)c2ccccc2CCC13 (stereo not drawn) | > 10 µM (inactive) | > 10 µM (inactive) | > 10 µM (inactive) | > 10 | > 10 µM (inactive) | > 10 µM (inactive) | > 10 µM (inactive) | > 10 µM (inactive) | > 10 µM (inactive) | > 10 µM (inactive) | > 10 µM (inactive) | > 10 µM (inactive) | > 10 µM (inactive) | > 10 µM (inactive) | > 10 µM (inactive) | > 10 µM (inactive) | – | > 10 µM (inactive) | > 10 µM (inactive) | > 10 µM (inactive) |
| CC(NC(=O)C(NC(=O)OC(C)(C)C)C(C)C)C(=O)NCC(=O)ON1C(=O)CCC1=O (stereo not drawn) (Boc-Val-Ala-Gly-OSu; configuration not given here) | > 100 µM (inactive) | > 100 µM (inactive) | > 100 µM (inactive) | > 100 | – | > 100 µM (inactive) | > 100 µM (inactive) | > 100 µM (inactive) | > 100 µM (inactive) | > 100 µM (inactive) | > 100 µM (inactive) | > 100 µM (inactive) | > 100 µM (inactive) | > 100 µM (inactive) | > 100 µM (inactive) | > 100 µM (inactive) | > 100 µM (inactive) | > 100 µM (inactive) | > 100 µM (inactive) | > 100 µM (inactive) |
| CC(=O)OC12c3ccccc3-c3ccccc3C1C1C(=O)N(C)C(=O)C12Cl (stereo not drawn) | > 10 µM (inactive) | – | > 10 µM (inactive) | > 10 | > 10 µM (inactive) | > 10 µM (inactive) | > 10 µM (inactive) | > 10 µM (inactive) | > 10 µM (inactive) | > 10 µM (inactive) | > 10 µM (inactive) | > 10 µM (inactive) | > 10 µM (inactive) | > 10 µM (inactive) | > 10 µM (inactive) | > 10 µM (inactive) | > 10 µM (inactive) | > 10 µM (inactive) | > 10 µM (inactive) | > 10 µM (inactive) |
| CCN(CC)CCCC(C)Nc1cc(/C=C/c2ccc(Cl)cc2)nc2cc(N(C)C)ccc12 (stereo not drawn) | 2.92 µM (inactive) | 2.25 µM (inactive) | 2.07 µM (inactive) | 1.67 | 1.72 µM (inactive) | 2 µM (inactive) | 1.7 µM (inactive) | 1.34 µM (inactive) | 1.67 µM (inactive) | 3.71 µM (inactive) | 1.76 µM (inactive) | 2.19 µM (inactive) | 1.7 µM (inactive) | 1.94 µM (inactive) | 1.9 µM (inactive) | 1.8 µM (inactive) | – | 1.66 µM (inactive) | 1.91 µM (inactive) | – |
| CCCCCCCCC/C=C1\CC(CO)(COC(=O)C2CCCCC2)OC1=O (stereo not drawn) | 14.9 µM (inactive) | 19.4 µM (inactive) | 23.7 µM (inactive) | 23.2 | – | 20.2 µM (inactive) | 20.4 µM (inactive) | 23.2 µM (inactive) | 13.5 µM (inactive) | 23.3 µM (inactive) | 22.9 µM (inactive) | 17 µM (inactive) | 18.6 µM (inactive) | 17.8 µM (inactive) | 15.9 µM (inactive) | 16.9 µM (inactive) | 15.8 µM (inactive) | 20.9 µM (inactive) | 21.3 µM (inactive) | 27.4 µM (inactive) |
| COC(=O)C1CCCCCCCCCCC12SCCCS2 (stereo not drawn) | 14.6 µM (inactive) | 17.4 µM (inactive) | 20.9 µM (inactive) | 26.7 | – | 17.7 µM (inactive) | 18.1 µM (inactive) | 43.9 µM (inactive) | 16.4 µM (inactive) | 18.6 µM (inactive) | 34.8 µM (inactive) | 20.7 µM (inactive) | 18.4 µM (inactive) | 16.8 µM (inactive) | 16.5 µM (inactive) | 16.9 µM (inactive) | 19.1 µM (inactive) | 35.7 µM (inactive) | 20.1 µM (inactive) | 17.5 µM (inactive) |
| COc1ccc(C(=O)N(C(=O)N2CCN(c3ccccc3)CC2)S(=O)(=O)c2ccccc2)cc1 | 29.9 µM (inactive) | 28.4 µM (inactive) | 52.6 µM (inactive) | 27.8 | 22.1 µM (inactive) | – | 31.6 µM (inactive) | 29.6 µM (inactive) | 29.5 µM (inactive) | 22.2 µM (inactive) | 24.1 µM (inactive) | 21.9 µM (inactive) | 37.8 µM (inactive) | 24.7 µM (inactive) | 31.9 µM (inactive) | 24.3 µM (inactive) | 32.7 µM (inactive) | 23 µM (inactive) | 38.4 µM (inactive) | 31.4 µM (inactive) |
